According to US20220143198A1, “COMPOSITIONS AND METHODS RELATED TO TETHERED KETHOXAL DERIVATIVES” (The University of Chicago, priority 2019, published 2022):

Test system: guanosine
Assay: Reactivity of kethoxal derivatives with guanosine (conversion rates of guanosine)
Format: biochemical
[1] = pH = 7.8, S1:S2 = 2:1 (S1 guanosine, S2 kethoxal derivative)

SMILES	Conversion rate of guanosine (pH = 7.8, S1:S2 = 1:1)	Conversion rate of guanosine (pH = 7.8, S1:S2 = 1:2)	Conversion rate of guanosine (pH = 7.8, S1:S2 = 1:3)	Conversion rate of guanosine [1]	Conversion rate of guanosine (pH = 7.0, S1:S2 = 1:1)	Conversion rate of guanosine (pH = 7.0, S1:S2 = 1:2)	Conversion rate of guanosine (pH = 7.0, S1:S2 = 2:1)	other results
[N-]=[N+]=NCCCC(=O)C=O [drawing 39]	48.0%	70.5%	88.9%	23.8%				Conversion rate of guanosine (pH = 7.8, S1:S2 = 1:5): 89.2%
[N-]=[N+]=NCCOC(F)C(=O)C=O (stereo not drawn) [drawing 43]	30.9%	49.6%	69.5%					Conversion rate of guanosine (pH = 7.8, S1:S2 = 1:5): 76.7%; Conversion rate of guanosine (pH = 7.8, S1:S2 = 1:10): 81.6%
CC(C)(OCCN=[N+]=[N-])C(=O)C=O [drawing 32]	81.6%	97.4%		51.3%				
[N-]=[N+]=NCCOCCC(=O)C=O [drawing 56]					38.3%	49.6%	16.8%	
CC(C(=O)C=O)N(C)C(=O)CN=[N+]=[N-] (stereo not drawn) [drawing 40]	40.2%	66.7%	74.9%					Conversion rate of guanosine (pH = 7.8, S1:S2 = 1:5): 83.2%
CC(OCCN=[N+]=[N-])C(=O)C=O (stereo not drawn) [drawing 31]	86.9%	97.4%		51.6%				
CC(Br)C(=O)C=O (stereo not drawn) [drawing 51]					40.4%	81.2%	22.4%	
O=CC(=O)Cc1ccccc1 [drawing 60]					22.5%	30.4%	9.0%	
CC(Br)C(=O)C=O (stereo not drawn) [drawing 36]	67.2%	89.9%	92.2%	35.8%				
[N-]=[N+]=NCCOC(F)(F)C(=O)C=O [drawing 44]	14.7%	28.9%	38.7%	8.5%				Conversion rate of guanosine (pH = 7.8, S1:S2 = 1:5): 63.1%
CC(N=[N+]=[N-])C(=O)C=O (stereo not drawn) [drawing 35]	71.2%	90.3%	96.5%	38.0%				
CC(C(=O)C=O)N(C)C(=O)CN=[N+]=[N-] (stereo not drawn) [drawing 55]					46.2%	64.2%	20.4%	Conversion rate of guanosine (pH = 7.0, S1:S2 = 1:4): 84.7%
O=CC(=O)c1ccccc1 [drawing 57]					22.5%	33.2%	9.9%	Conversion rate of guanosine (pH = 7.0, S1:S2 = 1:4): 51.5%
CC(OCCN=[N+]=[N-])C(=O)C=O (stereo not drawn) [drawing 46]					70.6%	93.7%	39.6%	
CC(OC(=O)CN=[N+]=[N-])C(=O)C=O (stereo not drawn) [drawing 34]	77.5%	92.1%		43.6%				
[N-]=[N+]=NCCOCC(=O)C=O [drawing 48]					52.2%	79.2%	30.3%	
O=CC(=O)c1ccccc1 [phenyl-substituted kethoxal derivative]	32.2%	51.2%	66.2%		18.8%	37.6%		Conversion rate of guanosine (pH = 7.0, S1:S2 = 1:3): 51.0%; Conversion rate of guanosine (pH = 7.0, S1:S2 = 1:5): 67.0%; Conversion rate of guanosine (pH = 7.8, S1:S2 = 1:5): 80.1%
[N-]=[N+]=NCCOC(F)C(=O)C=O (stereo not drawn) [drawing 58]					6.4%	8.2%	3.2%	Conversion rate of guanosine (pH = 7.0, S1:S2 = 1:0): 24.7%; Conversion rate of guanosine (pH = 7.0, S1:S2 = 1:4): 16.5%
[N-]=[N+]=NCCOCC(=O)C=O [drawing 33]	78.6%	95.4%		51.3%				
